{
  "source": "patent US20100317863A1",
  "about": "“Glucocorticoid Mimetics, Methods of Making Them, Pharmaceutical Compositions and Uses Thereof” (BOEHRINGER INGELHEIM INTERNATIONAL GMBH, priority 2007, published 2010)",
  "data": [
    {"molecular_target": "T1, human glucocorticoid receptor (GR) complex (Homo sapiens, UniProt P04150)", "T1 construct": "made in house; host or cells: insect expression system (baculovirus lysate)", "T1 sequence (P04150 1-777)": "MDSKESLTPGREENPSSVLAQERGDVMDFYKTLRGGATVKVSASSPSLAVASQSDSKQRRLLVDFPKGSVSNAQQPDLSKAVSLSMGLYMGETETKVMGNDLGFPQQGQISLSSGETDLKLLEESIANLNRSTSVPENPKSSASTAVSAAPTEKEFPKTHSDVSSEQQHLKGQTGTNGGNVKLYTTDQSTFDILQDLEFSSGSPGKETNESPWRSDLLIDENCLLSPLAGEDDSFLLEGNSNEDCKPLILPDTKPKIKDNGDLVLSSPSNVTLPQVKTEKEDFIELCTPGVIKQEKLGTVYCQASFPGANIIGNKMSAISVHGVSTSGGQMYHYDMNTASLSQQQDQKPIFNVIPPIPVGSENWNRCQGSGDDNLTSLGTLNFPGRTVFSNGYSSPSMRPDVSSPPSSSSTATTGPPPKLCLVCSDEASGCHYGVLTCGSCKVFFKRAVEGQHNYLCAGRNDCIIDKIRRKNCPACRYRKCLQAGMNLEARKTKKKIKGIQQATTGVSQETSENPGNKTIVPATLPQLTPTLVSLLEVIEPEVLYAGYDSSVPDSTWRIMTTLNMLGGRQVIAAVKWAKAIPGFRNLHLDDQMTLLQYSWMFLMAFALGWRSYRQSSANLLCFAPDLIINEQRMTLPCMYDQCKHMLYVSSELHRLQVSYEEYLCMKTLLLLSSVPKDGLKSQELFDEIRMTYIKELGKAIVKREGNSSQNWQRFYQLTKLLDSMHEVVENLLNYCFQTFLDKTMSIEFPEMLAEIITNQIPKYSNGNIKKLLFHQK", "assay": "Glucocorticoid Receptor Competitive Binding Assay (fluorescence polarization)", "details": "competition with TAMRA-labeled dexamethasone; potent activity", "protocol": "Compounds of the invention were evaluated for binding to the steroid receptor by a fluorescence polarization competitive binding assay. Detailed descriptions for preparation of recombinant glucocorticoid receptor (GR) complex used in the assay is described in U.S. Patent Application Publication No. US 2003/0017503, filed May 20, 2002, and incorporated herein by reference in its entirety. Preparation of the tetramethylrhodamine (TAMRA)-labeled dexamethasone probe was accomplished using a standard literature procedure (M. Pons et al., J. Steroid Biochem., 1985, 22, pp. 267-273).\nThis assay uses fluorescence polarization (FP) to quantitate the ability of test compounds to compete with tetramethylrhodamine (TAMRA)-labeled dexamethasone for binding to a human glucocorticoid receptor (GR) complex prepared from an insect expression system. The assay buffer was: 10 mM TES, 50 mM KCl, 20 mM Na2MoO4.2H2O, 1.5 mM EDTA, 0.04% w/v CHAPS, 10% v/v glycerol, 1 mM dithiothreitol, pH 7.4. Test compounds were dissolved to 1 mM in neat DMSO and then further diluted to 10× assay concentration in assay buffer supplemented with 10% v/v DMSO. Test compounds were serially diluted at 10× assay concentrations in 10% DMSO-containing buffer in 96-well polypropylene plates. Binding reaction mixtures were prepared in 96-well black Dynex microtiter plates by sequential addition of the following assay components to each well: 15 μL of 10× test compound solution, 85 μL of GR-containing baculovirus lysate diluted 1:170 in assay buffer, and 50 μL of 15 nM TAMRA-labeled dexamethasone. Positive controls were reaction mixtures containing no test compound; negative controls (blanks) were reaction mixtures containing 0.7 μM to 2 μM dexamethasone. The binding reactions were incubated for 1 hour at room temperature and then read for fluorescence polarization in the LJL Analyst set to 550 nm excitation and 580 nm emission, with the Rhodamine 561 dichroic mirror installed. IC50 values were determined by iterative non-linear curve fitting of the FP signal data to a 4-parameter logistic equation.", "units": {"IC50": "nM"}, "values": [
      {"smiles": "CC[C@@H](Cn1ccc2ccccc21)NS(=O)(=O)c1c(N)cc(Cl)cc1Cl", "note": "[2-Amino-4,6-dichloro-N—((S)-1-indol-1-ylmethylpropyl)benzenesulfonamide]", "IC50": "≤ 100"},
      {"smiles": "CC(C)[C@@H](Cn1cc(C#N)c2ccccc21)NS(=O)(=O)c1c(N)cc(Cl)cc1Cl", "note": "[2-Amino-4,6-dichloro-N—[(S)-1-(3-cyanoindol-1-ylmethyl)-2-methylpropyl]benzenesulfonamide]", "IC50": "≤ 100"},
      {"smiles": "CC[C@@H](Cn1cc(C#N)c2ccccc21)NS(=O)(=O)c1c(N)cc(Cl)cc1Cl", "note": "[2-Amino-4,6-dichloro-N—[(S)-1-(3-cyanoindol-1-ylmethyl)propyl]benzenesulfonamide]", "IC50": "≤ 100"},
      {"smiles": "CC[C@@H](Cn1cc(C)c2ccccc21)NS(=O)(=O)c1c(N)cc(Cl)cc1Cl", "note": "[2-Amino-4,6-dichloro-N—[(S)-1-(3-methylindol-1-ylmethyl)propyl]benzenesulfonamide]", "IC50": "≤ 100"},
      {"smiles": "CC[C@@H](Cn1cc(-c2ccccc2)c2ccccc21)NS(=O)(=O)c1c(N)cc(Cl)cc1Cl", "note": "[2-Amino-4,6-dichloro-N—[(S)-1-(3-phenylindol-1-ylmethyl)propyl]benzenesulfonamide]", "IC50": "≤ 100"},
      {"smiles": "Cc1cn(C[C@@H](NS(=O)(=O)c2c(N)cc(Cl)cc2Cl)C(C)C)c2ccccc12", "note": "[2-Amino-4,6-dichloro-N—[(S)-2-methyl-1-(3-methylindol-1-ylmethyl)propyl]benzenesulfonamide]", "IC50": "≤ 100"},
      {"smiles": "CC[C@@H](Cn1cc(C)c2ccccc21)NS(=O)(=O)c1c(C)cc(C)cc1N", "note": "[2-Amino-4,6-dimethyl-N—[(S)-1-(3-methylindol-1-ylmethyl)propyl]benzenesulfonamide]", "IC50": "≤ 100"},
      {"smiles": "Cc1cc(C)c(S(=O)(=O)N[C@H](Cn2cc(C)c3ccccc32)C(C)C)c(N)c1", "note": "[2-Amino-4,6-dimethyl-N—[(S)-2-methyl-1-(3-methylindol-1-ylmethyl)propyl]benzenesulfonamide]", "IC50": "≤ 100"},
      {"smiles": "CC[C@@H](Cn1cc(C#N)c2cc(F)ccc21)NS(=O)(=O)c1c(C)cc(C)cc1N", "note": "[2-Amino-N—[(S)-1-(3-cyano-5-fluoroindol-1-ylmethyl)propyl]-4,6-dimethylbenzenesulfonamide]", "IC50": "≤ 100"},
      {"smiles": "CC[C@@H](Cn1cc(C#N)c2cccc(F)c21)N(C)S(=O)(=O)c1c(C)cc(C)cc1N", "note": "[2-Amino-N—[(S)-1-(3-cyano-7-fluoroindol-1-ylmethyl)propyl]-4,6,N-trimethylbenzenesulfonamide]", "IC50": "≤ 100"},
      {"smiles": "Cc1cc(C)c(S(=O)(=O)N[C@H](Cn2cc(C#N)c3ccccc32)C(C)C)c(N)c1", "note": "[2-Amino-N—[(S)-1-(3-cyanoindol-1-ylmethyl)-2-methylpropyl]-4,6-dimethylbenzenesulfonamide]", "IC50": "≤ 100"},
      {"smiles": "CC[C@@H](Cn1cc(CC#N)c2ccccc21)NS(=O)(=O)c1c(C)cc(C)cc1N", "note": "[2-Amino-N—[(S)-1-(3-cyanomethylindol-1-ylmethyl)propyl]-4,6-dimethylbenzenesulfonamide]", "IC50": "≤ 100"},
      {"smiles": "CC[C@@H](Cn1cc(C)c2cccc(F)c21)NS(=O)(=O)c1c(C)cc(C)cc1N", "note": "[2-Amino-N—[(S)-1-(7-fluoro-3-methylindol-1-ylmethyl)propyl]-4,6-dimethylbenzenesulfonamide]", "IC50": "≤ 100"},
      {"smiles": "Cc1cc(C)c(S(=O)(=O)N[C@@H](C)Cn2cc(C#N)c3cc(F)ccc32)c(N)c1", "note": "[2-Amino-N—[(S)-2-(3-cyano-5-fluoroindol-1-yl)-1-methylethyl]-4,6-dimethylbenzenesulfonamide]", "IC50": "≤ 100"},
      {"smiles": "Cc1cc(C)c(S(=O)(=O)N(C)[C@@H](C)Cn2cc(C#N)c3cccc(F)c32)c(N)c1", "note": "[2-Amino-N—[(S)-2-(3-cyano-7-fluoroindol-1-yl)-1-methylethyl]-4,6,N-trimethylbenzenesulfonamide]", "IC50": "≤ 100"},
      {"smiles": "Cc1cc(C)c(S(=O)(=O)N[C@@H](C)Cn2cc(C#N)c3ccccc32)c(N)c1", "note": "[2-Amino-N—[(S)-2-(3-cyanoindol-1-yl)-1-methylethyl]-4,6-dimethylbenzenesulfonamide]", "IC50": "≤ 100"},
      {"smiles": "Cc1cc(C)c(S(=O)(=O)N[C@@H](C)Cn2cc(CC#N)c3cc(F)ccc32)c(N)c1", "note": "[2-Amino-N—[(S)-2-(3-cyanomethyl-5-fluoroindol-1-yl)-1-methylethyl]-4,6-dimethylbenzenesulfonamide]", "IC50": "≤ 100"},
      {"smiles": "Cc1cc(C)c(S(=O)(=O)N[C@@H](C)Cn2cc(CC#N)c3cccc(F)c32)c(N)c1", "note": "[2-Amino-N—[(S)-2-(3-cyanomethyl-7-fluoroindol-1-yl)-1-methylethyl]-4,6-dimethylbenzenesulfonamide]", "IC50": "≤ 100"},
      {"smiles": "Cc1cc(C)c(S(=O)(=O)N[C@@H](C)Cn2cc(CC#N)c3ccccc32)c(N)c1", "note": "[2-Amino-N—[(S)-2-(3-cyanomethylindol-1-yl)-1-methylethyl]-4,6-dimethylbenzenesulfonamide]", "IC50": "≤ 100"},
      {"smiles": "Cc1cc(C)c(S(=O)(=O)N[C@@H](C)Cn2cc(C)c3cccc(F)c32)c(N)c1", "note": "[2-Amino-N—[(S)-2-(7-fluoro-3-methylindol-1-yl)-1-methylethyl]-4,6-dimethylbenzenesulfonamide]", "IC50": "≤ 100"},
      {"smiles": "CC[C@@H](Cn1cc(C)c2ccccc21)NS(=O)(=O)c1c(C)cc(C)cc1Br", "note": "[2-Bromo-4,6-dimethyl-N—[(S)-1-(3-methylindol-1-ylmethyl)propyl]benzenesulfonamide]", "IC50": "≤ 100"},
      {"smiles": "CC[C@@H](Cn1cc(C#N)c2cc(F)ccc21)NS(=O)(=O)c1c(Cl)cc(-c2ccc(N(C)C)cc2)cc1Cl", "note": "[3,5-Dichloro-4′-dimethylaminobiphenyl-4-sulfonic acid [(S)-1-(3-cyano-5-fluoroindol-1-ylmethyl)propyl]amide]", "IC50": "≤ 100"},
      {"smiles": "CC[C@@H](Cn1cc(C#N)c2cc(F)ccc21)NS(=O)(=O)c1c(Cl)cc(Br)cc1Cl", "note": "[4-Bromo-2,6-dichloro-N—[(S)-1-(3-cyano-5-fluoroindol-1-ylmethyl)propyl]benzenesulfonamide]", "IC50": "≤ 100"},
      {"smiles": "Cc1cc(C)c(S(=O)(=O)NC(Cn2ccc3ccccc32)C(C)(C)C)c(C)c1", "note": "(stereo not drawn) [N-(1-Indol-1-ylmethyl-2,2-dimethylpropyl)-2,4,6-trimethylbenzenesulfonamide]", "IC50": "≤ 100"},
      {"smiles": "Cc1cc(C)c(S(=O)(=O)NC(Cn2ccc3ccccc32)C(C)C)c(C)c1", "note": "(stereo not drawn) [N-(1-Indol-1-ylmethyl-2-methylpropyl)-2,4,6-trimethylbenzenesulfonamide]", "IC50": "≤ 100"},
      {"smiles": "Cc1cc(C)c(S(=O)(=O)NC(CN2CCCc3ccccc32)C(C)C)c(C)c1", "note": "(stereo not drawn) [N-[1-(3,4-Dihydro-2H-quinolin-1-ylmethyl)-2-methylpropyl]-2,4,6-trimethylbenzenesulfonamide]", "IC50": "≤ 100"},
      {"smiles": "CC[C@@H](Cn1cc(Br)c2cccnc21)NS(=O)(=O)c1c(C)cc(C)cc1C", "note": "[N—[(S)-1-(3-Bromopyrrolo[2,3-b]pyridin-1-ylmethyl)propyl]-2,4,6-trimethylbenzenesulfonamide]", "IC50": "≤ 100"},
      {"smiles": "CC[C@@H](Cn1c(C)c(C#N)c2ccccc21)NS(=O)(=O)c1c(C)cc(C)cc1C", "note": "[N—[(S)-1-(3-Cyano-2-methylindol-1-ylmethyl)propyl]-2,4,6-trimethylbenzenesulfonamide]", "IC50": "≤ 100"},
      {"smiles": "CC[C@@H](Cn1cc(C#N)c2cc(F)ccc21)NS(=O)(=O)c1c(C)cc(C)cc1C", "note": "[N—[(S)-1-(3-Cyano-5-fluoroindol-1-ylmethyl)propyl]-2,4,6-trimethylbenzenesulfonamide]", "IC50": "≤ 100"},
      {"smiles": "CC[C@@H](Cn1cc(C#N)c2ccccc21)NS(=O)(=O)c1c(C)cc(C)cc1C", "note": "[N—[(S)-1-(3-Cyanoindol-1-ylmethyl)propyl]-2,4,6-trimethylbenzenesulfonamide]", "IC50": "≤ 100"}
    ]}
  ]
}
